Laboratory results as given in PubChem BioAssay (NCI).
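Where inhibition never reached the appropriate level, the endpoint shown equals the highest concentration tested. Otherwise, values were interpolated linearly from a five-concentration, 48-hour dose response in 96-well plates. Abbreviation: GI50, concentration required for 50% inhibition of growth. TGI: total growth inhibition.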

Experiments:
Assay in all cases: DTP human tumour cell line panel, 48 h
[1] = test system: MDA-N
[2] = test system: OVCAR-5 ovarian
[3] = test system: SNB-19 CNS
[4] = test system: BT-549 breast
[5] = test system: MDA-MB-231 breast
[6] = test system: IGROV1 ovarian
[7] = test system: UACC-257 melanoma
[8] = test system: RXF 393 renal
[9] = test system: PC-3 prostate
[10] = test system: SK-MEL-2 melanoma
[11] = test system: HCT-116 colon
[12] = test system: MCF7 breast

SMILES | TGI [1] | TGI [2] | TGI [3] | TGI [4] | TGI [5] | TGI [6] | TGI [7] | TGI [8] | TGI [9] | TGI [10] | TGI [11] | TGI [12] | GI50 [2] | GI50 [3] | GI50 [12] | GI50 [6] | GI50 [7] | GI50 [9] | GI50 [10]
O=C1c2ccccc2C(=O)c2cc(N=Nc3c(O)ccc4ccccc34)ccc21 | > 100 µM | > 100 µM | > 100 µM | > 100 µM | > 100 µM | > 100 µM | > 100 µM | > 100 µM | > 100 µM | > 100 µM | > 100 µM | – | – | – | – | – | – | – | –
CCCCCCCCCCCCCCCCNC(=O)C(=O)/C=C(\O)c1ccc(C)cc1 | > 10 µM | > 10 µM | – | – | > 10 µM | > 10 µM | > 10 µM | > 10 µM | > 10 µM | > 10 µM | – | > 10 µM | – | – | – | – | – | – | –
COC(=O)c1ccc(/C=C2\Oc3ccccc3C2=O)cc1 | > 100 µM | – | > 100 µM | > 100 µM | > 100 µM | > 100 µM | > 100 µM | > 100 µM | > 100 µM | – | > 100 µM | > 100 µM | – | – | – | – | – | – | –
CCOC(=O)c1[nH]c(Br)c(-c2ccc(OC)c(OC)c2)c1Br | – | 63.3 µM | 17.6 µM | 3.16 µM | – | 11.9 µM | 22.3 µM | 0.0424 µM | 23.7 µM | 20.2 µM | 13.7 µM | 17.2 µM | 20.3 µM | 13.7 nM | 338 nM | 49.4 nM | 10 µM | 11.2 nM | 15.2 nM
O=C(/C=C/c1ccccc1)CSc1ncn[nH]1 | > 100 µM | > 100 µM | > 100 µM | > 100 µM | – | > 100 µM | > 100 µM | > 100 µM | > 100 µM | > 100 µM | > 100 µM | > 100 µM | – | – | – | – | – | – | –
CS(=O)(=O)OCCN(CCOS(C)(=O)=O)c1ccc(C=Nc2cccc(Cl)c2)cc1 | – | 17.7 µM | > 46.2 µM | 53.3 µM | 48.6 µM | > 87.8 µM | 21.1 µM | > 100 µM | > 100 µM | 66.5 µM | > 100 µM | > 100 µM | – | – | – | – | – | – | –
O=C(OC1C2OC(=O)c3cc(O)c(O)c(O)c3Oc3cc4c(c(O)c3O)-c3c(cc(O)c(O)c3O)C(=O)OCC3OC(O)C(OC(=O)c5cc(O)c(O)c(O)c5Oc5cc6c(c(O)c5O)-c5c(cc(O)c(O)c5O)C(=O)OC1C(COC6=O)OC2O)C(OC(=O)c1cc(O)c(O)c(O)c1)C3OC4=O)c1cc(O)c(O)c(O)c1 (stereo not drawn) | 46.6 µM | > 100 µM | 51.6 µM | – | 68.4 µM | > 100 µM | > 100 µM | 52.5 µM | 87.7 µM | – | 57.2 µM | > 100 µM | – | – | – | – | – | – | –
O=c1cc(CO)oc2c3c(cc(O)c12)OCC(COC1OC(CO)C(O)C(O)C1O)=CC3 (stereo not drawn) | – | > 100 µM | > 100 µM | – | – | > 100 µM | > 100 µM | > 100 µM | – | > 100 µM | > 100 µM | – | – | – | – | – | – | – | –
c1ccc2c(c1)c1c(n2CCOCCN2CCCC2)CCCC1 | 35.8 µM | 35.3 µM | – | – | 31 µM | 56.4 µM | 53 µM | – | 66 µM | 30.7 µM | 32.5 µM | 31.3 µM | – | – | – | – | – | – | –
c1cc2c(cc1NC1=NCCO1)OCO2 | > 100 µM | > 100 µM | > 100 µM | – | > 100 µM | > 100 µM | – | > 100 µM | > 100 µM | > 100 µM | > 100 µM | > 100 µM | – | – | – | – | – | – | –
CCOc1ccc2[nH]c3c(C)c4ccncc4c(C)c3c2c1 | – | 2.93 µM | 2.77 µM | – | – | 2.42 µM | 3.24 µM | – | – | 2.48 µM | 1.78 µM | – | – | – | – | – | – | – | –
Cn1c2ccccc2c2c3c(c4c5ccccc5n(C)c4c21)C(=O)NC3=O | – | > 100 µM | 49.6 µM | > 100 µM | > 52.7 µM | > 71.8 µM | > 100 µM | > 22.1 µM | > 77.5 µM | > 58.3 µM | > 100 µM | > 100 µM | – | – | – | – | – | – | –
COc1ccc(C(c2c(O)c3ccccc3n(-c3ccccc3)c2=O)c2c(O)c3ccccc3n(-c3ccccc3)c2=O)cc1 | – | > 100 µM | > 100 µM | – | – | – | – | > 100 µM | – | > 100 µM | > 100 µM | – | – | – | – | – | – | – | –
COC(=O)CCC1=C(CC(=O)OC)C(C)(OC)N=C1NC(=O)OCc1ccccc1 (stereo not drawn) | – | > 100 µM | > 100 µM | > 100 µM | > 100 µM | > 100 µM | > 100 µM | > 100 µM | > 100 µM | > 100 µM | > 100 µM | > 100 µM | – | – | – | – | – | – | –
O=C1C(Br)=C(c2ccccc2)O/C1=C/C(=O)c1ccc(Br)cc1 | > 100 µM | > 100 µM | > 100 µM | 25.5 µM | > 100 µM | > 100 µM | – | 46.9 µM | 53.3 µM | – | > 100 µM | > 100 µM | – | – | – | – | – | – | –
O=[N+]([O-])c1ccc2c(c1)N([O-])C1(CCCCC1)[N+]2=O | 31.8 µM | 34.7 µM | > 100 µM | – | 34.4 µM | 36.9 µM | 29.4 µM | 32.4 µM | 31.2 µM | 52.1 µM | 33.3 µM | 36.6 µM | – | – | – | – | – | – | –
COc1ccc(C(=O)O[C@H]2[C@@H]3C=CO[C@@H](OC4OC(CO)C(O)C(O)C4O)[C@@H]3[C@@]3(CO)O[C@@H]23)cc1O (stereo partly drawn) | – | > 100 µM | > 100 µM | – | – | > 100 µM | > 100 µM | > 100 µM | – | > 100 µM | – | – | – | – | – | – | – | – | –
NC1=C(NC(=O)Cc2ccccc2F)C(=O)c2ccccc2C1=O | – | – | > 100 µM | – | – | > 100 µM | > 100 µM | 56.5 µM | – | > 100 µM | > 100 µM | – | – | – | – | – | – | – | –
COc1ccc(-n2c(N)c(C#N)[nH]c2=O)cc1 | > 10 µM | > 10 µM | > 10 µM | – | > 10 µM | > 10 µM | > 10 µM | > 10 µM | > 10 µM | > 10 µM | > 10 µM | – | – | – | – | – | – | – | –
CCN(CC)CCCNc1ccc2nc(C)n3c4ccc(O)cc4c(=O)c1c23 | 20.6 µM | 20.2 µM | 22 µM | 25.6 µM | – | 9.79 µM | 29 µM | 15 µM | 12.6 µM | 21.3 µM | 11.1 µM | 17.6 µM | – | – | – | – | – | – | –
CC(C)(C)OC(=O)N(CCCCNC(=O)OCc1ccccc1)CCCNC(=O)OCc1ccccc1 | – | > 100 µM | > 100 µM | > 100 µM | > 100 µM | > 100 µM | > 100 µM | > 100 µM | > 100 µM | > 100 µM | > 100 µM | > 100 µM | – | – | – | – | – | – | –
